Results on one molecule are retold here after patent publication US12329799B2, “Peptidyl inhibitors of calcineurin-NFAT interaction” (Ohio State Innovation Foundation, priority 2018, dated 2025).

Data set [1] concerns LPS-induced acute lung injury (ALI) in mice. Description: LPS sepsis-induced acute lung injury, intranasal CNI93. The format is in vivo, mouse. Conditions: i.n. 10 mg/kg. Here is the method: As expected, LPS challenge of CPP9-VAVAA (SEQ ID NO: 224) treated mice increased the total protein in BALF by ˜2-fold and TNFα and IL-6 levels in BALF (FIGS. 11A, 11B, and 11D, respectively).
Mouse models of LPS sepsis. Mouse LPS sepsis-induced acute lung injury models were established by intraperitoneal injection of LPS at 10 mg/kg body weight. Acute lung injury was assessed by measuring secretion of TNFα, IL6 in to broncho alveolar lavage fluid (BALF), plasma levels of IL6 and TNFα, and neutrophilic infiltration. Pulmonary edema was measured by increased protein levels in BALF. Neutrophilic infiltration in to bronchoalveolar lavage fluid is determined by Hema 3.0 staining and number of neutrophils in BALF is quantitated.
Neutrophilic inflammation. BALF fluid from different treatment groups of mice was used to prepare Cytospin slides, stained using Hema 3 and number of neutrophils and macrophages per field view of microscopic view were counted and differences among groups calculated.

Data set [2] addresses T1, Calcineurin (GST-CN) (Homo sapiens, UniProt Q08209).
T1 construct: made in house; host or cells: E. coli BL21
Description: Direct binding of FITC-labeled peptides to CN by fluorescence anisotropy/polarization. The procedure:
To facilitate concentration determination and binding analysis by fluorescence anisotropy (FA), a dipeptide Tyr-Lys was added to the C-terminus of ZIZIT (SEQ ID NO:1) and the lysine side chain was labeled with fluorescein isothiocyanate (FITC). The resulting peptide,
Fluorescence Polarization. Fluorescence polarization (FP) experiments were carried out to measure binding affinity in both direct and competitive binding experiments using GST-CN and peptides prepared as mentioned previously. For direct binding, 50 nM FITC-labeled peptide was prepared in PBS, pH 7.4 containing 5 mM DTT and 0.01% Triton-X100 and then added to GST-CN diluted in PBS containing 0.01% Triton-X100. Solutions were incubated for 1 h at RT with gentle mixing and then pipetted into black 384-well microplates. Fluorescence polarization was measured on a TECAN Infinite M1000 plate reader and titration curves were fitted using both KaelidaGraph v 3.6 and GraphPad PRISM to the equation:
[formula] • where FP is the measured fluorescence polarization, Amin is the minimum FP value, Amax is the maximum FP signal, Qb is the quantum yield of the bound fluorophore, Qf is the quantum yield of the free fluorophore, L is the ligand concentration, KD is the dissociation constant and x is the protein concentration.
On the technique in general: Fluorescence polarisation rises when a labelled molecule tumbles more slowly, as on binding a larger partner.

The test system of data set [3] is LPS-induced TNFα production in lung macrophages. Description: LPS-induced TNFα secretion by lung macrophages (ELISA). The format is cell-based, mouse. The source says:
Cell supernatants were collected and analyzed for TNFα levels by R&D systems TNFα ELISA kit.
Background: In an ELISA, binding on a coated surface is turned into a signal by an enzyme label.

In data set [4] the test system is LPS-induced TNFα and IL-6 secretion, mouse total lung macrophages. Kind of data set: Inhibition of TNFα and IL-6 secretion by macrophage. The format is cell-based. The settings on record: 100 nM, 1 μM, or 10 μM for 2 h, then LPS 6 h. Here is the method: Mouse total lung macrophages were obtained from 5 mice and pooled. Macrophages were pretreated with 100 nM, 1 μM, or 10 μM inhibitor for 2 h and stimulated with LPS ([…]) or PBS for 6 h. Cell supernatants were collected and analyzed for TNFα levels (FIG. 20A) or IL-6 levels (FIG. 20B) by R&D Systems TNFα ELISA kit and R&D Systems IL-6 ELISA kit.

Data set [5] concerns HeLa cells. Description: Cytosolic delivery assay (NF-labeled peptides, flow cytometry). The data set is classed as cell-based. The settings on record: 5 μM, 2 h, relative to CPP9 = 100%. Here is the method:
The NF fluorescence intensity of the treated cells therefore reflects the amount of the peptide that has reached the cytosol and nucleus of the cells. […] Live-cell confocal microscopic analysis confirmed that CNI93 reached the interior of HeLa cells.
Cytosolic Delivery Assay. HeLa cells maintained in DMEM supplemented with 10% FBS and 1% penicillin/streptomycin were seeded into 12-well plates (1.5×10^5 cells per well) and incubated overnight at 37° C., 5% CO2. The following day, the cells were washed with DPBS and incubated with 5 μM NF-labeled peptides dissolved in DMEM containing 10% FBS, 1% penicllin/streptomycin for 2 h at 37° C. in the presence of 5% CO2. After that, the cells were washed with DPBS and harvested from the plate by treatment with 0.25% trypsin for 5 min. Cells were centrifuged at 300×RCF, washed twice with cold DPBS, and resuspended in cold DPBS for flow cytometry analysis on a BD LSR II flow cytometer followed by data analysis and gating using Flowjo. Calculation of cytosolic uptake efficiencies was carried out as previously described by Qian, Z., et al., Discovery and Mechanism of Highly Efficient Cyclic Cell-Penetrating Peptides. Biochemistry 2016, 55, 2601-2612.
On the technique in general: A flow cytometer gives signals particle by particle.

The subject of data set [6] is NFAT-mediated luciferase expression in Jurkat cells. Kind of data set: NFAT luciferase assay in Jurkat cells. The data set is classed as cell-based. Conditions: 10 μM, Jurkat cells. Here is the method:
In a separate experiment, CNI93 was also tested against Jurkat cells expressing a luciferase gene under the transcriptional control of NFAT.
NFAT Luciferase Assay. Jurkat-Lucia cells maintained in RPMI-1640 supplemented with 10% FBS, 1% penicillin/streptomycin (v/v/v) and 100 μg/mL normocin were harvested after a passage with 50 μg/mL selective antibiotic Zeocin at 300×RCF for 5 min. Cells were resuspended in warm RPMI-1640 with antibiotics but without FBS to a final density of 2×10^6 cells/mL and seeded into white-on-white cell-culture treated 96-well plates. To each well was added 10 μL of DPBS containing compounds which dilute to the desired concentrations followed by 170 μL of cell suspension […] and incubated at 37° C. for 2 h. The cells were induced by treatment with 50 ng/mL PMA and 3 μg/mL ionomycin, Ca^2+ salt in FBS to achieve a final FBS concentration of 10% in each well (with FBS only as control). The plate was incubated for an additional 4 h at 37° C., when 20 μL of each sample was withdrawn and mixed with 50 μL of Quanti-Luc assay solution. The luminescence of the mixture was immediately measured on a Tecan Infinite M1000 plate reader.

The nature of data set [7]: Maximum tolerated dose (body weight over 10 days). The data set is classed as in vivo.

Molecules are shown by their SMILES. Positions of bridges follow the written chain, without caps; N, C: chain ends. Non-standard residues stand in square brackets, D forms with d. Residues, ends and D or L forms follow the SMILES beside them. Chains are numbered I, II in the order given. *: point of attachment. Benzoyl(2,3-Cl2) = O=C(c1cccc(Cl)c1Cl)*; 2Nal = N[C@@H](Cc1ccc2ccccc2c1)C(=O)O; Tle = CC(C)(C)[C@H](N)C(=O)O; βAla = NCCC(=O)O

T1 sequence (Q08209 2-347 limits assumed): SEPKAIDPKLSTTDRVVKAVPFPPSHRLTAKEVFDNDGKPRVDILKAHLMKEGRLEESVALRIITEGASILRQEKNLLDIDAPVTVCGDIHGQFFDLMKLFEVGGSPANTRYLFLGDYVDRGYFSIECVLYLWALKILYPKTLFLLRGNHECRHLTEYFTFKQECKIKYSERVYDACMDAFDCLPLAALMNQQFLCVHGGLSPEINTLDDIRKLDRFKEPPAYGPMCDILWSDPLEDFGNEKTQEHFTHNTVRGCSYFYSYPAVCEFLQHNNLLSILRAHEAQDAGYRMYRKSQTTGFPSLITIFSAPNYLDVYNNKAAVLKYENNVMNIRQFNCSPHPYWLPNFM

`CC[C@H](C)[C@H](NC(=O)[C@@H](NC(=O)c1cccc(Cl)c1Cl)C(C)(C)C)C(=O)N[C@H](C(=O)N[C@H](C(=O)N[C@H](C(=O)N[C@@H](CCC(N)=O)C(=O)N[C@@H](Cc1c[nH]cn1)C(=O)N[C@H](CC(C)C)C(=O)N[C@@H](CO)C(=O)NCCC(=O)N[C@@H](CCCCNC(=O)CC[C@@H]1NC(=O)[C@@H](CCCNC(=N)N)NC(=O)[C@H](CCCNC(=N)N)NC(=O)[C@@H](CCCNC(=N)N)NC(=O)[C@H](CCCNC(=N)N)NC(=O)[C@H](Cc2ccc3ccccc3c2)NC(=O)[C@@H](Cc2ccccc2)NC1=O)C(N)=O)[C@@H](C)O)[C@@H](C)CC)C(C)(C)C` [CNI93] (I: {Benzoyl(2,3-Cl2)}-[Tle]I[Tle]ITQH[dL]S[βAla]K-NH2 / II: cyclo([2Nal]R[dR]R[dR]E[dF]); amide I:11-II:6 (inferred); ring closure inferred): in data set [1] (1 h before LPS i.p. 10 mg/kg), the “neutrophilic infiltration into the lungs” value is “prevented”; the “protection from LPS-induced production of cytokines and protein leakage into BALF” value was “almost completely protected”. Besides, in data set [1] (LPS sepsis mice), the “decrease of plasma level of IL6” value is listed as ~4 fold and the “decrease of plasma level of TNFα” value is on record as ~4 fold. The “lower CN-binding affinity relative to peptide 14” value in data set [2] is on record as 8 fold. The “decrease of LPS-induced TNFα production” value in data set [3] (dose-dependent, 100 nM-10 μM, LPS 100 ng/mL, 16 h) is on record as 24-59%. Besides, in data set [3] (ex vivo assay), the “potency as immunosuppressant relative to CsA” value is listed as ~10 fold. Further, the “secreted amounts of TNFα and IL6” value in data set [4] was “dose-dependently reduced”. Further, the “relative cytosolic delivery efficiency” value in data set [5] stood at 109%. In addition, in data set [6], the “phorbol ester- and ionomycin-induced expression of luciferase” value is on record as “potently inhibited”. In addition, in data set [7] (intranasal 10 mg/kg), the body weight entry is given as “steady increase in body weight similar to healthy controls”; the “survival and signs of distress” value is “survived and showed no visible sign of distress”. Also, in data set [7] (intranasal 50 mg/kg), the body weight entry is “steady increase in body weight similar to healthy controls”; the “survival and signs of distress” value was “survived and showed no visible sign of distress”.
